According to patent US20230149323A1, “INHIBITORS OF THE INTERACTION OF THE UPAR/FPRS RECEPTORS” (ORPHA BIOTECH S.R.L., priority 2020, published 2023):
“Also recorded” adds a separate entry of the source.

What was measured:
BJ cells = experiment: Cell adhesion assay to VN on BJ cells; format: cell-based, human; settings: FIG. 2(B): BJ cells treated with compounds at 50 µM vs DMSO vehicle (100%)
Procedure: The cell line BJ (ATCC CRL2522) was used as model of human skin fibroblasts. The cells were cultivated in Dulbecco’s Modified Eagle Medium (DMEM) containing fetal bovine serum at 10% (FBS) at 37° C. with CO2 at 5%.
The plates with 96 wells (Nunc, Roskilde, Denmark) were covered with VN (1 µg) or with 100 µl of 1% BSA deactivated with heat in PBS, as negative control, and incubated during the entire night at 4° C. The plates were then blocked 1 hour at ambient temperature with 1% BSA deactivated with heat in 1% PBS. The cells were detached with PBS containing 2 mM of EDTA and washed with DMEM lacking serum, they were counted, plated in the wells with a density of 10^5 cells/well and incubated for 1 hour at 37° C. in the presence of or in the absence of the selected compounds. The cells were then fixed with paraformaldehyde at 3% in PBS for 10 minutes and then incubated with methanol at 2% for 10 minutes. The cells were finally colored for 10 minutes with 0.5% crystal violet in 20% methanol, eluted with 0.1 mol/l of sodium citrate in 50% ethanol (pH 4.2) and the absorbance was measured at 540 nm with a spectrophotometer.

[1] = biological target: T1, bond of purified uPAR to the VN (Homo sapiens, UniProt Q03405); experiment: Bond of soluble biotinylated uPAR to immobilized VN (ELISA); format: binding; settings: FIG. 2(A): compounds at 50 µM vs DMSO vehicle (100%)
T1 construct: Soluble recombinant uPAR (suPAR; R&D System, Minneapolis, MN, USA); purchased R&D System
Procedure: Soluble recombinant uPAR (suPAR; R&D System, Minneapolis, MN, USA) was biotinylated and purified with the biotinylation module of the proteins ECL Amersham according to the producer’s instructions (GE Healthcare, Buckinghamshire, UK).
The (high-binding) plates with 96 wells (Corning, New York, USA) were covered with 0.5 µg/well of VN (Becton Dickinson Biosciences, Franklin Lakes, NJ, USA) diluted in PBS (0.08 M NaCl, 0.002 M KCl, 0.0115 M Na2HPO4, 0.002 M KH2PO4, pH 7.2) or bovine serum albumin (BSA), as negative control, and incubated at 4° C. for the entire night. After a washing in PBS, the residual bond sites were blocked with 200 µL of BSA at 1% in PBS, for 1 hour at ambient temperature. 25 nmol/L of biotinylated s-uPAR (diluted in PBS, 1 mg/mL of BSA), on its own or in the presence of selected compounds, were placed in the covered wells. The plates were maintained at 4° C. for 1 hour, washed with PBS containing 0.1% Tween 20 and then avidin marked with peroxidase (Amersham), diluted 1:1.500 in PBS containing 10 mg/mL of BSA. After further washings, the substrate of peroxidase o-phenylenediamine (Sigma, St. Louis, MO, USA) was added and left to react for 3 minutes. The reactions were stopped with 1 mol/L H2SO4 and the product was measured at 492 nm by using an automated plate reader (Bio-Rad, Munich, Germany).

T1 sequence (Q03405 23-305 limits assumed): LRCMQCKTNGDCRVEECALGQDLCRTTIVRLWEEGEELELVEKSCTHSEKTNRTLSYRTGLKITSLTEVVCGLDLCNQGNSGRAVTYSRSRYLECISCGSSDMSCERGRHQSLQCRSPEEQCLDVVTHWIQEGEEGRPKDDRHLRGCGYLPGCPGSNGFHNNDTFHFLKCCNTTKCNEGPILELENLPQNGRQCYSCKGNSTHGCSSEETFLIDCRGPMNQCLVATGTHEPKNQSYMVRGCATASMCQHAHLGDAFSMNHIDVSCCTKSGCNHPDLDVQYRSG

inhibitory activity against the interaction of the uPAR with the VN in vitro [1] | SMILES | inhibitory activity against cell adhesion to the VN (BJ cells)
greater inhibitory activity | CC(C)(C)c1cc(Cl)c(O)c(Cc2cc(C(C)(C)C)cc(Cl)c2O)c1 [Compound 23, 6,6′-methylenebis(4-(tert-butyl)-2-chlorophenol)] | greater inhibitory activity; also recorded: considerable contribution
greater inhibitory activity | Cc1ccc(C(C)(C)c2ccc(C)cc2O)c(O)c1 [Compound 3, 6,6′-(propan-2,2-diyl)bis(3-methylphenol)] | greater inhibitory activity
greater inhibitory activity | CCCc1cc(-c2ccc(O)c(CCC)c2)ccc1O [Compound 19, 3,3′-dipropyl[1,1′-biphenyl]-4,4′-diol] | greater inhibitory activity; also recorded: considerable contribution
greater inhibitory activity | Cc1cc(Cc2cc(C)cc(C(C)(C)C)c2O)c(O)c(C(C)(C)C)c1 [Compound 20, 6,6′-methylenebis(2-(tert-butyl)-4-methylphenol)] | greater inhibitory activity; also recorded: considerable contribution
